Key:
Assay in all cases: relative viability (nuclei count vs DMSO), 5 days (fraction); higher = more cells survive
Lapatinib + Olaparib = compound: CS(=O)(=O)CCNCc1ccc(-c2ccc3ncnc(Nc4ccc(OCc5cccc(F)c5)c(Cl)c4)c3c2)o1 [Lapatinib] + O=C(c1cc(Cc2n[nH]c(=O)c3ccccc23)ccc1F)N1CCN(C(=O)C2CC2)CC1 [Olaparib] (partner 8 µM)
Outline: (§1)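 Medians of duplicate plates are given as relative viability. That measure is the nuclei count in treated wells divided by the count in vehicle wells. Counts were taken on 4× images of lung cancer cell lines in 1536-well plates, 5 days after pin-tool dosing the day after seeding with one drug alone or a fixed anchor-drug dose plus five library-drug doses (not always all listed) in √10 steps.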

Lapatinib + Decitabine = compound: CS(=O)(=O)CCNCc1ccc(-c2ccc3ncnc(Nc4ccc(OCc5cccc(F)c5)c(Cl)c4)c3c2)o1 [Lapatinib] + Nc1ncn([C@H]2C[C@H](O)[C@@H](CO)O2)c(=O)n1 [Decitabine] (partner 2 µM)
Outline: as §1

Wnt-C59 + Dasatinib = compound: CC1=NC=CC(=C1)C2=CC=C(C=C2)CC(=O)NC3=CC=C(C=C3)C4=CN=CC=C4 [Wnt-C59] + Cc1nc(Nc2ncc(C(=O)Nc3c(C)cccc3Cl)s2)cc(N2CCN(CCO)CC2)n1 [Dasatinib] (partner 0.075 µM)
Outline: as §1

Lapatinib + Navitoclax = compound: CS(=O)(=O)CCNCc1ccc(-c2ccc3ncnc(Nc4ccc(OCc5cccc(F)c5)c(Cl)c4)c3c2)o1 [Lapatinib] + CC1(C)CCC(c2ccc(Cl)cc2)=C(CN2CCN(c3ccc(C(=O)NS(=O)(=O)c4ccc(N[C@H](CCN5CCOCC5)CSc5ccccc5)c(S(=O)(=O)C(F)(F)F)c4)cc3)CC2)C1 [Navitoclax] (partner 0.5 µM)
Outline: as §1

For NCI-H358, the relative viability (Lapatinib + Olaparib; first compound 0.02 µM) was 0.535, the relative viability (Lapatinib + Olaparib; first compound 0.06325 µM) was 0.476 and the relative viability (Lapatinib + Olaparib; first compound 0.2 µM) was 0.385. The relative viability (Lapatinib + Olaparib; first compound 0.6325 µM) was 0.377, the relative viability (Lapatinib + Olaparib; first compound 2 µM) was 0.205 and the relative viability (Lapatinib + Decitabine; first compound 0.02 µM) was 0.205. The relative viability (Lapatinib + Decitabine; first compound 0.06325 µM) was 0.181, the relative viability (Lapatinib + Decitabine; first compound 0.2 µM) was 0.206 and the relative viability (Lapatinib + Decitabine; first compound 0.6325 µM) was 0.162. For the same cell line, the relative viability (Lapatinib + Decitabine; first compound 2 µM) was 0.152, the relative viability (Wnt-C59 + Dasatinib; first compound 0.001 µM) was 0.177 and the relative viability (Wnt-C59 + Dasatinib; first compound 0.01 µM) was 0.154. It also gave a relative viability (Wnt-C59 + Dasatinib; first compound 0.03162 µM) of 0.145 and a relative viability (Wnt-C59 + Dasatinib; first compound 0.1 µM) of 0.152.
Cell Line NCI-H522 has a relative viability (Lapatinib + Olaparib; first compound 0.06325 µM) of 0.467, a relative viability (Lapatinib + Olaparib; first compound 0.2 µM) of 0.575 and a relative viability (Lapatinib + Olaparib; first compound 0.6325 µM) of 0.572. For the same cell line, the relative viability (Lapatinib + Olaparib; first compound 2 µM) was 0.518, the relative viability (Lapatinib + Decitabine; first compound 0.06325 µM) was 0.645 and the relative viability (Lapatinib + Decitabine; first compound 0.2 µM) was 0.647. For the same cell line, the relative viability (Lapatinib + Decitabine; first compound 0.6325 µM) was 0.683, the relative viability (Lapatinib + Decitabine; first compound 2 µM) was 0.664 and the relative viability (Wnt-C59 + Dasatinib; first compound 0.001 µM) was 0.92. It also gave a relative viability (Wnt-C59 + Dasatinib; first compound 0.01 µM) of 0.752, a relative viability (Wnt-C59 + Dasatinib; first compound 0.03162 µM) of 0.875 and a relative viability (Wnt-C59 + Dasatinib; first compound 0.1 µM) of 0.882.
Work on NCI-H650 yielded a relative viability (Lapatinib + Olaparib; first compound 0.06325 µM) of 0.355, a relative viability (Lapatinib + Olaparib; first compound 0.2 µM) of 0.372 and a relative viability (Lapatinib + Olaparib; first compound 0.6325 µM) of 0.397. The relative viability (Lapatinib + Olaparib; first compound 2 µM) was 0.337, the relative viability (Lapatinib + Decitabine; first compound 0.06325 µM) was 0.319 and the relative viability (Lapatinib + Decitabine; first compound 0.2 µM) was 0.328. The relative viability (Lapatinib + Decitabine; first compound 0.6325 µM) was 0.324, the relative viability (Lapatinib + Decitabine; first compound 2 µM) was 0.343 and the relative viability (Wnt-C59 + Dasatinib; first compound 0.001 µM) was 0.43. For the same cell line, the relative viability (Wnt-C59 + Dasatinib; first compound 0.01 µM) was 0.512, the relative viability (Wnt-C59 + Dasatinib; first compound 0.03162 µM) was 0.457 and the relative viability (Wnt-C59 + Dasatinib; first compound 0.1 µM) was 0.526.
NCI-H661 gave a relative viability (Lapatinib + Olaparib; first compound 0.02 µM) of 0.663, a relative viability (Lapatinib + Olaparib; first compound 0.06325 µM) of 0.72 and a relative viability (Lapatinib + Olaparib; first compound 0.2 µM) of 0.708. The relative viability (Lapatinib + Olaparib; first compound 0.6325 µM) was 0.631, the relative viability (Lapatinib + Olaparib; first compound 2 µM) was 0.545 and the relative viability (Lapatinib + Decitabine; first compound 0.02 µM) was 0.48. For the same cell line, the relative viability (Lapatinib + Decitabine; first compound 0.06325 µM) was 0.474, the relative viability (Lapatinib + Decitabine; first compound 0.2 µM) was 0.489 and the relative viability (Lapatinib + Decitabine; first compound 0.6325 µM) was 0.387. The relative viability (Lapatinib + Decitabine; first compound 2 µM) was 0.423, the relative viability (Wnt-C59 + Dasatinib; first compound 0.001 µM) was 0.914 and the relative viability (Wnt-C59 + Dasatinib; first compound 0.01 µM) was 0.736. The relative viability (Wnt-C59 + Dasatinib; first compound 0.03162 µM) was 0.907 and the relative viability (Wnt-C59 + Dasatinib; first compound 0.1 µM) was 0.872.
Work on NCI-H1299 yielded a relative viability (Lapatinib + Olaparib; first compound 0.02 µM) of 0.952, a relative viability (Lapatinib + Olaparib; first compound 0.06325 µM) of 0.99 and a relative viability (Lapatinib + Olaparib; first compound 0.2 µM) of 0.93. It also gave a relative viability (Lapatinib + Olaparib; first compound 0.6325 µM) of 0.967, a relative viability (Lapatinib + Olaparib; first compound 2 µM) of 0.965 and a relative viability (Lapatinib + Navitoclax; first compound 0.02 µM) of 1.05. The relative viability (Lapatinib + Navitoclax; first compound 0.06325 µM) was 1.06, the relative viability (Lapatinib + Navitoclax; first compound 0.2 µM) was 1.05 and the relative viability (Lapatinib + Navitoclax; first compound 0.6325 µM) was 1.01. For the same cell line, the relative viability (Lapatinib + Navitoclax; first compound 2 µM) was 1.06.
Cell Line NCI-H1563 has a relative viability (Wnt-C59 + Dasatinib; first compound 0.001 µM) of 0.456, a relative viability (Wnt-C59 + Dasatinib; first compound 0.01 µM) of 0.509 and a relative viability (Wnt-C59 + Dasatinib; first compound 0.03162 µM) of 0.475. For the same cell line, the relative viability (Wnt-C59 + Dasatinib; first compound 0.1 µM) was 0.468.
For NCI-H1623, the relative viability (Wnt-C59 + Dasatinib; first compound 0.001 µM) was 0.507, the relative viability (Wnt-C59 + Dasatinib; first compound 0.01 µM) was 0.488 and the relative viability (Wnt-C59 + Dasatinib; first compound 0.03162 µM) was 0.572. The relative viability (Wnt-C59 + Dasatinib; first compound 0.1 µM) was 0.625.
For NCI-H1648, the relative viability (Lapatinib + Olaparib; first compound 0.06325 µM) was 0.466, the relative viability (Lapatinib + Olaparib; first compound 0.2 µM) was 0.588 and the relative viability (Lapatinib + Olaparib; first compound 0.6325 µM) was 0.769. It also gave a relative viability (Lapatinib + Olaparib; first compound 2 µM) of 0.28, a relative viability (Lapatinib + Decitabine; first compound 0.06325 µM) of 0.389 and a relative viability (Lapatinib + Decitabine; first compound 0.2 µM) of 0.495. The relative viability (Lapatinib + Decitabine; first compound 0.6325 µM) was 0.481 and the relative viability (Lapatinib + Decitabine; first compound 2 µM) was 0.33.
With NCI-H1703 the relative viability (Lapatinib + Olaparib; first compound 0.02 µM) was 0.312, the relative viability (Lapatinib + Olaparib; first compound 0.06325 µM) was 0.489 and the relative viability (Lapatinib + Olaparib; first compound 0.2 µM) was 0.392. The relative viability (Lapatinib + Olaparib; first compound 0.6325 µM) was 0.595, the relative viability (Lapatinib + Olaparib; first compound 2 µM) was 0.383 and the relative viability (Lapatinib + Navitoclax; first compound 0.02 µM) was 0.908. It also gave a relative viability (Lapatinib + Navitoclax; first compound 0.06325 µM) of 0.943, a relative viability (Lapatinib + Navitoclax; first compound 0.2 µM) of 1.03 and a relative viability (Lapatinib + Navitoclax; first compound 0.6325 µM) of 1.33. It also gave a relative viability (Lapatinib + Navitoclax; first compound 2 µM) of 0.996.
In the case of NCI-H2228, the relative viability (Lapatinib + Olaparib; first compound 0.02 µM) is reported as 0.562, the relative viability (Lapatinib + Olaparib; first compound 0.06325 µM) is reported as 0.537 and the relative viability (Lapatinib + Olaparib; first compound 0.2 µM) is reported as 0.728. The relative viability (Lapatinib + Olaparib; first compound 0.6325 µM) was 0.482, the relative viability (Lapatinib + Olaparib; first compound 2 µM) was 0.436 and the relative viability (Lapatinib + Navitoclax; first compound 0.02 µM) was 0.838. It also gave a relative viability (Lapatinib + Navitoclax; first compound 0.06325 µM) of 0.807, a relative viability (Lapatinib + Navitoclax; first compound 0.2 µM) of 0.809 and a relative viability (Lapatinib + Navitoclax; first compound 0.6325 µM) of 1.28. The relative viability (Lapatinib + Navitoclax; first compound 2 µM) was 0.912, the relative viability (Wnt-C59 + Dasatinib; first compound 0.001 µM) was 0.503 and the relative viability (Wnt-C59 + Dasatinib; first compound 0.01 µM) was 0.429. For the same cell line, the relative viability (Wnt-C59 + Dasatinib; first compound 0.03162 µM) was 0.615 and the relative viability (Wnt-C59 + Dasatinib; first compound 0.1 µM) was 0.524.
In the case of NCI-H2342, the relative viability (Lapatinib + Olaparib; first compound 0.02 µM) is reported as 0.406, the relative viability (Lapatinib + Olaparib; first compound 0.06325 µM) is reported as 0.405 and the relative viability (Lapatinib + Olaparib; first compound 0.2 µM) is reported as 0.398. The relative viability (Lapatinib + Olaparib; first compound 0.6325 µM) was 0.433, the relative viability (Lapatinib + Olaparib; first compound 2 µM) was 0.348 and the relative viability (Lapatinib + Decitabine; first compound 0.02 µM) was 0.706. It also gave a relative viability (Lapatinib + Decitabine; first compound 0.06325 µM) of 0.694, a relative viability (Lapatinib + Decitabine; first compound 0.2 µM) of 0.618 and a relative viability (Lapatinib + Decitabine; first compound 0.6325 µM) of 0.691. It also gave a relative viability (Lapatinib + Decitabine; first compound 2 µM) of 0.638, a relative viability (Wnt-C59 + Dasatinib; first compound 0.001 µM) of 0.326 and a relative viability (Wnt-C59 + Dasatinib; first compound 0.01 µM) of 0.326. The relative viability (Wnt-C59 + Dasatinib; first compound 0.03162 µM) was 0.358 and the relative viability (Wnt-C59 + Dasatinib; first compound 0.1 µM) was 0.337.
In the case of SW 900, the relative viability (Lapatinib + Olaparib; first compound 0.06325 µM) is reported as 0.78, the relative viability (Lapatinib + Olaparib; first compound 0.2 µM) is reported as 0.574 and the relative viability (Lapatinib + Olaparib; first compound 0.6325 µM) is reported as 0.864. The relative viability (Lapatinib + Olaparib; first compound 2 µM) was 0.56, the relative viability (Lapatinib + Decitabine; first compound 0.06325 µM) was 0.392 and the relative viability (Lapatinib + Decitabine; first compound 0.2 µM) was 0.428. For the same cell line, the relative viability (Lapatinib + Decitabine; first compound 0.6325 µM) was 0.44, the relative viability (Lapatinib + Decitabine; first compound 2 µM) was 0.425 and the relative viability (Wnt-C59 + Dasatinib; first compound 0.001 µM) was 0.545. The relative viability (Wnt-C59 + Dasatinib; first compound 0.01 µM) was 0.708, the relative viability (Wnt-C59 + Dasatinib; first compound 0.03162 µM) was 0.768 and the relative viability (Wnt-C59 + Dasatinib; first compound 0.1 µM) was 0.624.
